{"source": "paper PMC11232401", "about": "“Characterization of antimalarial activity of artemisinin-based hybrid drugs” (Antimicrobial Agents and Chemotherapy, 2024)", "key": {"[1]": {"test_system": "3D7 strain of P. falciparum", "assay": "Host cell-mediated drug degradation: antiplasmodial activity of uRBC supernatants", "format": "cell-based, Plasmodium falciparum", "settings": "for IC50: Plasmodium falciparum, 3D7, 0.16 h, 500 nM drug, 3D7, SYBR Green I, median ± SEM (AQ mean, 95% CI), read-out: IC50 of supernatants harvested at 0.16 h; for Fold changes (24 h/0.16 h): 3D7, ratio of IC50 at 24 h to IC50 at 0.16 h", "experimental": "Each well of 96-well plates was filled with 125 µL drug (1000 nM) and 125 µL uninfected red blood cells (uRBC), which were mixed to obtain a final drug concentration of 500 nM and 2.5% or 1.0% hematocrit. The plates were incubated at 37°C in the standard gas mixture. After each time point (10 min, 6 h, and 24 h), supernatants were carefully harvested and stored at −80°C until use. […] Next, supernatants were diluted in a complete medium in six different dilutions and were aliquoted in new plates. The antimalarial activity of these supernatants and freshly dissolved drugs was determined in an asynchronous parasite culture of P. falciparum (3D7, D10, and W2 strains) for 72 h using the same method described above, and parasite viability was assessed by the pLDH ([38]) and SYBR Green I ([41]) methods. Only the experiments where the IC50 values of the supernatants harvested at 10 min were the same as those of the respective fresh drugs were considered for determining equivalent drug concentration. […] Decay in drug concentration was estimated by using the normalized slope values calculated from linear regression fits using the slope values of a standard curve as reference. Three independent experiments were performed using two replicates.\nFigure S5: Data associated to Figure 3 in the main text of the manuscript. Panel A: Representative response-concentration curves of the antiplasmodial activity of supernatant-derived uRBC (2.5% hematocrit) harvested at indicated times (0.16, 6, and 24 h). Drug activity on parasite viability was determined 72 h after parasite incubation (3D7 strain, asynchronous). Values were subtracted from control (without treatment), transformed, and normalized to calculate nonlinear fit. Parasite viability was determined by SYBR Green I. Values are mean and error bars are the standard deviation of a single experiment, each concentration in duplicate. […] Footnotes: ^[a] Parasite viability was determined by SYBR Green I. ^[b^] Parasite viability was determined by pLDH readout. Values are median ± SEM of three independent experiments, each concentration in duplicate. ^[c^] […] These values are expressed as mean and 95% confidence interval (CI) of one experiment, each concentration in duplicate. […] Unpaired two-tailed t-test at 95% CI: *p <0.05; **p <0.01."}, "[2]": {"test_system": "quiescent ART-resistant parasites (F32-ART)", "assay": "Quiescent-stage survival assay (QSA)", "format": "cell-based, Plasmodium falciparum", "settings": "for Recrudescence time in days (median; range), Quiescent parasites (QSA) DHA / DHA + drug: then DHA plus 700 nM drug 48 h (condition B); for delay of recrudescence in the QSA versus DHA alone: threshold of activity 6 days", "experimental": "The QSA was performed as previously described to determine the drug activity on quiescent ART-resistant parasites ([11]). F32-ART culture parasites were synchronized at the ring stage and adjusted to 3% parasitemia and 2% hematocrit. […] At the end of treatment, parasites from each of the three conditions were washed with RPMI-1640 medium and replaced in new wells in a drug-free culture medium with 10% human serum. Parasitemia was determined daily by thin blood smears until the cultures reached their initial parasitemia (3%), which was defined as the recrudescence day ([11]). The recrudescence capacity of parasites exposed in conditions A and B was compared to determine whether the drug was active on quiescent parasites. Condition C was designed to check that the concentration at which the drug was tested acted on proliferating parasites. If no parasite recrudescence was observed, the experiment was stopped."}, "F32-TEM parasites": {"test_system": "F32-TEM parasites", "assay": "In vitro recrudescence assay", "format": "cell-based, Plasmodium falciparum", "settings": "700 nM, 48 h exposure, monitored up to 30 days", "experimental": "(§1) Parasites were washed with RPMI-1640 medium before being placed in drug-free culture conditions with 10% human serum. Parasitemia was determined daily by Giemsa-staining of blood smears until the cultures reached their initial parasitemia, defined as the recrudescence day. […] Two independent experiments were performed ([10])."}, "F32-ART parasites": {"test_system": "F32-ART parasites", "assay": "In vitro recrudescence assay", "format": "cell-based, Plasmodium falciparum", "settings": "700 nM, 48 h exposure; for Recrudescence time in days (median; range), Recrudescence assay F32-ART: monitored up to 30 days", "experimental": "as §1"}, "P. falciparum Dd2 strain": {"test_system": "P. falciparum Dd2 strain", "design": "method as in PMID 31290221, PMID 34832911, PMID 38559731", "settings": "asynchronous culture, SYBR Green I; read-out: IC50 (nM, median ± SEM) for P. falciparum Dd2 strain; cited from earlier work"}, "[3]": {"test_system": "Ring stages of NF54 strain P. falciparum", "assay": "Antiplasmodial activity of drug combinations (pLDH, isobologram/FIC)", "format": "cell-based", "settings": "Plasmodium falciparum, NF54, ring stages NF54; mean (95% CI); tested in parallel with the combination of the same line; read-out: IC50, Drugs alone", "experimental": "The activity of the drug combinations against the P. falciparum NF54 strain was determined as described above. In each experiment, drugs were tested alone and in combination. Twofold serial dilutions of the drug solutions were made using fixed molar ratios of 1:1, 1:3, and 3:1 for each combination and using two technical replicates (ranging from 200 to 1.0 nM). Parasite growth was determined by the pLDH method, as described above. IC50 values for each drug alone or in combination were determined, and an isobologram analysis was performed by plotting the fractional inhibitory concentrations (FIC) for each combination and its component drugs separately. Individual FIC values were calculated as the IC50 of the drug combination divided by the IC50 of the drug in isolation. A dashed line was plotted to indicate any additive effect and distinguish antagonism (above the dashed line) from synergism (below the dashed line). Three independent experiments were performed, each one containing two replicates. Each experiment was used to represent an isobologram analysis [mean and 95% confidence interval (CI)].\nValues represent one experiment; each concentration of drug combination was tested in technical duplicate. Black dashed line indicates ΣFIC = 1 (absolute additivity). […] FIC index <1 is synergistic, ~1 is additive, and >1 is antagonistic. Nondetrimental interactions are 0.25 <ΣFIC <1.25.\n^[a] Values are the mean and 95% confidence interval of one experiment for each concentration of compounds in duplicate."}}, "note": "Where two headings read alike, the source gives them in different places.", "data": [{"smiles": "C[C@H]1[C@@H](O)O[C@@H]2O[C@@]3(C)CC[C@H]4[C@H](C)CC[C@@H]1[C@@]24OO3", "note": "[DHA, dihydroartemisinin, reference compound]", "values": [{"measurement": "IC50", "setting": "[1]; uRBC 1.0% hematocrit", "value": "4.5 ± 1.1", "unit": "nM"}, {"measurement": "IC50", "setting": "[1]; uRBC 2.5% hematocrit", "value": "6.7 ± 2.5", "unit": "nM"}, {"measurement": "loss in supernatant activity, supernatant harvested at 6 h", "setting": "[1]; high hematocrit (2.5%)", "value": "fourfold"}, {"measurement": "loss in antiplasmodial activity of supernatants harvested at 6 h", "setting": "[1]; low hematocrit (1%)", "value": 2, "unit": "fold"}, {"measurement": "Recrudescence time in days (median; range), Quiescent parasites (QSA) DHA / DHA", "setting": "[2]; 700 nM DHA 6 h, then DHA alone 48 h (condition A)", "value": "8.5 (8–9) days"}, {"measurement": "Recrudescence time in days (median; range), Recrudescence assay F32-TEM", "setting": "F32-TEM parasites", "value": "16.5 (15–18) days"}, {"measurement": "delay in recrudescence between F32-ART and F32-TEM", "setting": "F32-ART parasites", "value": 8, "unit": "days"}, {"measurement": "Recrudescence time in days (median; range), Recrudescence assay F32-ART", "setting": "F32-ART parasites", "value": "7.5 (7–8) days"}]}, {"smiles": "COCCOCCOCCOCCn1c(-c2ccc(-n3cc(-c4ccc(OC5OC6OC7(C)CCC8C(C)CCC(C5C)C68OO7)cc4)nn3)cc2)nc2ccccc21", "note": "(centres unmarked) [Hybrid 1]", "values": [{"measurement": "IC50", "setting": "[1]; uRBC 2.5% hematocrit", "value": "1.3 ± 0.44", "unit": "nM"}, {"measurement": "Fold changes (24 h/0.16 h)", "setting": "[1]; uRBC 1.0% hematocrit", "value": "1.0 ± 0.23"}, {"measurement": "Fold changes (24 h/0.16 h)", "setting": "[1]; uRBC 2.5% hematocrit", "value": 3}, {"measurement": "Fold changes (24 h/0.16 h)", "setting": "[1]; uRBC 2.5% hematocrit, listed as LH70 (1)", "value": "3.6 ± 0.8"}, {"measurement": "Recrudescence time in days (median; range), Quiescent parasites (QSA) DHA / DHA + drug", "setting": "[2]; 700 nM DHA 6 h", "value": "11.5 (11–12) days"}, {"measurement": "delay of recrudescence in the QSA versus DHA alone", "setting": "[2]", "value": 0.5, "unit": "days"}, {"measurement": "Recrudescence time in days (median; range), Recrudescence assay F32-TEM", "setting": "F32-TEM parasites", "value": "> 20 (21–>30) days"}, {"measurement": "Recrudescence time in days (median; range), Recrudescence assay F32-ART", "setting": "F32-ART parasites", "value": "11.5 (10– 13) days"}, {"measurement": "IC50", "setting": "P. falciparum Dd2 strain", "value": "3 ± 0.3", "unit": "nM"}, {"measurement": "IC50", "setting": "[3]", "value": 2.2, "unit": "nM"}]}, {"smiles": "CC1CCC2C(C)C(OC(=O)CCC(=O)OCCNc3ccnc4cc(Cl)ccc34)OC3OC4(C)CCC1C32OO4", "note": "(centres unmarked) [Hybrid 2]", "values": [{"measurement": "IC50", "setting": "[1]; uRBC 1.0% hematocrit", "value": "3.4 ± 0.33", "unit": "nM"}, {"measurement": "IC50", "setting": "[1]; uRBC 2.5% hematocrit", "value": "2.8 ± 0.51", "unit": "nM"}, {"measurement": "Fold changes (24 h/0.16 h)", "setting": "[1]; uRBC 1.0% hematocrit", "value": "1.1 ± 0.31"}, {"measurement": "Fold changes (24 h/0.16 h)", "setting": "[1]; uRBC 2.5% hematocrit", "value": 10}, {"measurement": "Fold changes (24 h/0.16 h)", "setting": "[1]; uRBC 2.5% hematocrit, listed as 163A (2)", "value": "10.7 ± 4.1"}, {"measurement": "Recrudescence time in days (median; range), Quiescent parasites (QSA) DHA / DHA + drug", "setting": "[2]; 700 nM DHA 6 h", "value": "9 (8–10) days"}, {"measurement": "delay of recrudescence in the QSA versus DHA alone", "setting": "[2]", "value": 3, "unit": "days"}, {"measurement": "Recrudescence time in days (median; range), Recrudescence assay F32-TEM", "setting": "F32-TEM parasites", "value": "16 (14–18) days"}, {"measurement": "Recrudescence time in days (median; range), Recrudescence assay F32-ART", "setting": "F32-ART parasites", "value": "7.5 (7–8) days"}, {"measurement": "IC50", "setting": "P. falciparum Dd2 strain", "value": "2.3 ± 0.6", "unit": "nM"}, {"measurement": "IC50", "setting": "[3]", "value": 4.7, "unit": "nM"}]}]}
